Assay results from patent US9809578B2, “Pyrazolyl urea, thiourea, guanidine and cyanoguanidine compounds as trkA kinase inhibitors” (Array BioPharma Inc., priority 2012, dated 2017).

Legend:
Assay type in all cases: biochemical
Settings in all cases: 10 μM, ATP near Km
[1] = biological target: T1, AKT1 (Homo sapiens, UniProt P31749); experiment: KinaseProfiler AKT1
T1 construct: purchased Millipore (KinaseProfiler service)
From the text: (§1) The compound was run in duplicate at a concentration of ATP near the Km for each individual kinase according to Millipore's specifications.

[2] = biological target: T2, BTK (Homo sapiens, UniProt Q06187); experiment: KinaseProfiler BTK
T2 construct: purchased Millipore (KinaseProfiler service)
From the text: as §1

[3] = biological target: T3, CDK9/cyclinT1 (Homo sapiens, UniProt P50750); experiment: KinaseProfiler CDK9/cyclinT1
T3 construct: purchased Millipore, Inc. (KinaseProfiler service)
From the text: as §1

[4] = biological target: T4, CHK1 (Homo sapiens, UniProt O14757); experiment: KinaseProfiler CHK1
T4 construct: purchased Millipore, Inc. (KinaseProfiler service)
From the text: as §1

[5] = biological target: T5, CK1gamma2 (Homo sapiens, UniProt P78368); experiment: KinaseProfiler CK1gamma2
T5 construct: purchased Millipore, Inc. (KinaseProfiler service)
From the text: as §1

[6] = biological target: T6, CK2 (Homo sapiens, UniProt P68400); experiment: KinaseProfiler CK2
T6 construct: purchased Millipore, Inc. (KinaseProfiler service)
From the text: as §1

[7] = biological target: T7, CLK3 (Homo sapiens, UniProt P49761); experiment: KinaseProfiler CLK3
T7 construct: purchased Millipore, Inc. (KinaseProfiler service)
From the text: as §1

[8] = biological target: T8, DMPK (Homo sapiens, UniProt Q09013); experiment: KinaseProfiler DMPK
T8 construct: purchased Millipore, Inc. (KinaseProfiler service)
From the text: as §1

[9] = biological target: T9, DRAK1 (Homo sapiens, UniProt Q9UEE5); experiment: KinaseProfiler DRAK1
T9 construct: purchased Millipore, Inc. (KinaseProfiler service)
From the text: as §1

[10] = biological target: T10, EphA2 (Homo sapiens, UniProt P29317); experiment: KinaseProfiler EphA2
T10 construct: purchased Millipore, Inc. (KinaseProfiler service)
From the text: as §1

[11] = biological target: T11, EphA5 (Homo sapiens, UniProt P54756); experiment: KinaseProfiler EphA5
T11 construct: purchased Millipore, Inc. (KinaseProfiler service)
From the text: as §1

[12] = biological target: T12, EphB2 (Homo sapiens, UniProt P29323); experiment: KinaseProfiler EphB2
T12 construct: purchased Millipore, Inc. (KinaseProfiler service)
From the text: as §1

[13] = biological target: T13, EphB3 (Homo sapiens, UniProt P54753); experiment: KinaseProfiler EphB3
T13 construct: purchased Millipore, Inc. (KinaseProfiler service)
From the text: as §1

[14] = biological target: T14, EphB4 (Homo sapiens, UniProt P54760); experiment: KinaseProfiler EphB4
T14 construct: purchased Millipore, Inc. (KinaseProfiler service)
From the text: as §1

[15] = biological target: T15, ERK2 (Homo sapiens, UniProt P28482); experiment: KinaseProfiler ERK2
T15 construct: purchased Millipore, Inc. (KinaseProfiler service)
From the text: as §1

[16] = biological target: T16, FGFR3 (Homo sapiens, UniProt P22607); experiment: KinaseProfiler FGFR3
T16 construct: purchased Millipore, Inc. (KinaseProfiler service)
From the text: as §1

[17] = biological target: T17, Fgr (Homo sapiens, UniProt P09769); experiment: KinaseProfiler Fgr
T17 construct: purchased Millipore, Inc. (KinaseProfiler service)
From the text: as §1

[18] = biological target: T18, Fyn (Homo sapiens, UniProt P06241); experiment: KinaseProfiler Fyn
T18 construct: purchased Millipore, Inc. (KinaseProfiler service)
From the text: as §1

[19] = biological target: T19, GSK3alpha (Homo sapiens, UniProt P49840); experiment: KinaseProfiler GSK3alpha
T19 construct: purchased Millipore, Inc. (KinaseProfiler service)
From the text: as §1

[20] = biological target: T20, Haspin (Homo sapiens, UniProt Q8TF76); experiment: KinaseProfiler Haspin
T20 construct: purchased Millipore, Inc. (KinaseProfiler service)
From the text: as §1

[21] = biological target: T21, JAK2 (Homo sapiens, UniProt O60674); experiment: KinaseProfiler JAK2
T21 construct: purchased Millipore, Inc. (KinaseProfiler service)
From the text: as §1

[22] = biological target: T22, JAK3 (Homo sapiens, UniProt P52333); experiment: KinaseProfiler JAK3
T22 construct: purchased Millipore, Inc. (KinaseProfiler service)
From the text: as §1

[23] = biological target: T23, KDR (Homo sapiens, UniProt P35968); experiment: KinaseProfiler KDR
T23 construct: purchased Millipore, Inc. (KinaseProfiler service)
From the text: as §1

[24] = biological target: T24, MKK4_m (Mus musculus, UniProt P47809); experiment: KinaseProfiler MKK4_m
T24 construct: purchased Millipore, Inc. (KinaseProfiler service)
From the text: as §1

[25] = biological target: T25, MKNK2 (Homo sapiens, UniProt Q9HBH9); experiment: KinaseProfiler MKNK2
T25 construct: purchased Millipore, Inc. (KinaseProfiler service)
From the text: as §1

[26] = biological target: T26, MSSK1 (Homo sapiens, UniProt Q9UPE1); experiment: KinaseProfiler MSSK1
T26 construct: purchased Millipore, Inc. (KinaseProfiler service)
From the text: as §1

[27] = biological target: T27, NEK7 (Homo sapiens, UniProt Q8TDX7); experiment: KinaseProfiler NEK7
T27 construct: purchased Millipore, Inc. (KinaseProfiler service)
From the text: as §1

[28] = biological target: T28, p38alpha (Homo sapiens, UniProt Q16539); experiment: KinaseProfiler p38alpha
T28 construct: purchased Millipore, Inc. (KinaseProfiler service)
From the text: as §1

[29] = biological target: T29, p38beta (Homo sapiens, UniProt Q15759); experiment: KinaseProfiler p38beta
T29 construct: purchased Millipore, Inc. (KinaseProfiler service)
From the text: as §1

[30] = biological target: T30, PAK5 (Homo sapiens, UniProt Q9P286); experiment: KinaseProfiler PAK5
T30 construct: purchased Millipore, Inc. (KinaseProfiler service)
From the text: as §1

[31] = biological target: T31, PAK6 (Homo sapiens, UniProt Q9NQU5); experiment: KinaseProfiler PAK6
T31 construct: purchased Millipore, Inc. (KinaseProfiler service)
From the text: as §1

[32] = biological target: T32, PDGFRalpha (Homo sapiens, UniProt P16234); experiment: KinaseProfiler PDGFRalpha
T32 construct: purchased Millipore, Inc. (KinaseProfiler service)
From the text: as §1

[33] = biological target: T33, PhKgamma2 (Homo sapiens, UniProt P15735); experiment: KinaseProfiler PhKgamma2
T33 construct: purchased Millipore, Inc. (KinaseProfiler service)
From the text: as §1

[34] = biological target: T34, PKCeta (Homo sapiens, UniProt P24723); experiment: KinaseProfiler PKCeta
T34 construct: purchased Millipore, Inc. (KinaseProfiler service)
From the text: as §1

[35] = biological target: T35, PKCiota (Homo sapiens, UniProt P41743); experiment: KinaseProfiler PKCiota
T35 construct: purchased Millipore, Inc. (KinaseProfiler service)
From the text: as §1

[36] = biological target: T36, PRKG1alpha (Homo sapiens, UniProt Q13976); experiment: KinaseProfiler PRKG1alpha
T36 construct: purchased Millipore, Inc. (KinaseProfiler service)
From the text: as §1

[37] = biological target: T37, PrKX (Homo sapiens, UniProt P51817); experiment: KinaseProfiler PrKX
T37 construct: purchased Millipore, Inc. (KinaseProfiler service)
From the text: as §1

[38] = biological target: T38, ROCK-I (Homo sapiens, UniProt Q13464); experiment: KinaseProfiler ROCK-I
T38 construct: purchased Millipore, Inc. (KinaseProfiler service)
From the text: as §1

[39] = biological target: T39, ROCK-II (Homo sapiens, UniProt O75116); experiment: KinaseProfiler ROCK-II
T39 construct: purchased Millipore, Inc. (KinaseProfiler service)
From the text: as §1

[40] = biological target: T40, SGK2 (Homo sapiens, UniProt Q9HBY8); experiment: KinaseProfiler SGK2
T40 construct: purchased Millipore, Inc. (KinaseProfiler service)
From the text: as §1

[41] = biological target: T41, SRC (Homo sapiens, UniProt P12931); experiment: KinaseProfiler SRC
T41 construct: purchased Millipore, Inc. (KinaseProfiler service)
From the text: as §1

[42] = biological target: T42, STK33 (Homo sapiens, UniProt Q9BYT3); experiment: KinaseProfiler STK33
T42 construct: purchased Millipore, Inc. (KinaseProfiler service)
From the text: as §1

[43] = biological target: T43, ULK3 (Homo sapiens, UniProt Q6PHR2); experiment: KinaseProfiler ULK3
T43 construct: purchased Millipore, Inc. (KinaseProfiler service)
From the text: as §1

T36 sequence (Q13976 whole entry): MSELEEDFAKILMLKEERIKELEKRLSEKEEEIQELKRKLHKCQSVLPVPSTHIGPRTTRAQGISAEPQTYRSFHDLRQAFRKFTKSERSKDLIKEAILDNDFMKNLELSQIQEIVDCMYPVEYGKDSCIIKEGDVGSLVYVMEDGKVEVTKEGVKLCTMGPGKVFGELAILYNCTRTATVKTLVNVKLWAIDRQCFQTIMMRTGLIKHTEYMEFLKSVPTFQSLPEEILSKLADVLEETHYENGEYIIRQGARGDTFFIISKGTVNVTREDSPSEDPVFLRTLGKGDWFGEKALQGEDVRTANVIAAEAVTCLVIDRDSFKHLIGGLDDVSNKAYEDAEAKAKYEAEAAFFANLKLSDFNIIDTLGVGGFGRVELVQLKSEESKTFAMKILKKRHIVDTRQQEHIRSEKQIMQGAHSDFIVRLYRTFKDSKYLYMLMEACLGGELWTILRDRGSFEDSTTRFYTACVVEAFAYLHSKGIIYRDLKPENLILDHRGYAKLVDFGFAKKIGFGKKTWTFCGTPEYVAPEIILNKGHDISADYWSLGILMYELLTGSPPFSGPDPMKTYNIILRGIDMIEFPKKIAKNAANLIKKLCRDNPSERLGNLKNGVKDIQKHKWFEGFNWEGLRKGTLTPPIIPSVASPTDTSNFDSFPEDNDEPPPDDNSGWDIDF
T22 sequence (P52333 whole entry): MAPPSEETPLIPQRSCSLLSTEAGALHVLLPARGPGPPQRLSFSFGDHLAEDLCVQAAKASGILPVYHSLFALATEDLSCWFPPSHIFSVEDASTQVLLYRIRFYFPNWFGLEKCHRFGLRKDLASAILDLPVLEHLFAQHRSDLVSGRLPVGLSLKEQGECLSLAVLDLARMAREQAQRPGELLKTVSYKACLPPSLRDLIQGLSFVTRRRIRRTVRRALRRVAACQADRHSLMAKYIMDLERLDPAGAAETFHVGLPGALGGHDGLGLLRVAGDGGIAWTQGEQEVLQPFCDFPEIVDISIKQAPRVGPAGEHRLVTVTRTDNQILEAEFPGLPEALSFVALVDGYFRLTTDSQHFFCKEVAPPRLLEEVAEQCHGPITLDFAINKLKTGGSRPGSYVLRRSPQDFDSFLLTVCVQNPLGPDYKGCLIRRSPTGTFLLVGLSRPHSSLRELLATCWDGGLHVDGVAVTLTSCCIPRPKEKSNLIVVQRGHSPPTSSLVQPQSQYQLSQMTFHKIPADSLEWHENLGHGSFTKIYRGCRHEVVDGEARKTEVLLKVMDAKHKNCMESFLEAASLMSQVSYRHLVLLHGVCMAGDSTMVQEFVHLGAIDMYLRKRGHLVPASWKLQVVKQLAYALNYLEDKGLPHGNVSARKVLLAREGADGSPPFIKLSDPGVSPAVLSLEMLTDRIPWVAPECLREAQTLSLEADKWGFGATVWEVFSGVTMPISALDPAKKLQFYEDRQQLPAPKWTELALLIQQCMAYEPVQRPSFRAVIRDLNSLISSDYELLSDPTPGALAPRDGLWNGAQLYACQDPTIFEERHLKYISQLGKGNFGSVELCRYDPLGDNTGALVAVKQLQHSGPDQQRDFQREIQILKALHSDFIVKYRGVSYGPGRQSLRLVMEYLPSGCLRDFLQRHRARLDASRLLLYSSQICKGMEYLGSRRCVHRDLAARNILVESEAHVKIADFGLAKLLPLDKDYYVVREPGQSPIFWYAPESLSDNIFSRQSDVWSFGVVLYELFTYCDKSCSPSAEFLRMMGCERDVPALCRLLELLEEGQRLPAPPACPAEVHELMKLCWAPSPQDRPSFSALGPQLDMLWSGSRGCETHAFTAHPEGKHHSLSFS
T34 sequence (P24723 whole entry): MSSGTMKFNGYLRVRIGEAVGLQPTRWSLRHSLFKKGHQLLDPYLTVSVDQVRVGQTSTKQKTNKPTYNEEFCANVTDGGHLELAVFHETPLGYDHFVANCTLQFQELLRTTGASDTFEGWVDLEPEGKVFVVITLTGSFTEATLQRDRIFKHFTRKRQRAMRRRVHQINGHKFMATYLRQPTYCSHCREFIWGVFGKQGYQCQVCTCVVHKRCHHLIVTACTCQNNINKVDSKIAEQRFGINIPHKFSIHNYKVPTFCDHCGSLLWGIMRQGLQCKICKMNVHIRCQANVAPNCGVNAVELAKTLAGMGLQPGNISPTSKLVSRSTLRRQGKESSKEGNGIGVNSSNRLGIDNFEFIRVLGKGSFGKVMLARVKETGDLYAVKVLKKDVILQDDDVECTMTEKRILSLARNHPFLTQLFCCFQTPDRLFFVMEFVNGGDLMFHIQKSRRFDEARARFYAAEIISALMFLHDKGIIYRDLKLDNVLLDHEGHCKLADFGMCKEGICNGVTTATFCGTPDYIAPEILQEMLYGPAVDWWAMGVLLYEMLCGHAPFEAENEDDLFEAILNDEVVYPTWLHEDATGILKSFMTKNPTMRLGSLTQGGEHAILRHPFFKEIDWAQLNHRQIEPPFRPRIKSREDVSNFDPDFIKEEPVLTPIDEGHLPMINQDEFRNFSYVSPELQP
T38 sequence (Q13464 whole entry): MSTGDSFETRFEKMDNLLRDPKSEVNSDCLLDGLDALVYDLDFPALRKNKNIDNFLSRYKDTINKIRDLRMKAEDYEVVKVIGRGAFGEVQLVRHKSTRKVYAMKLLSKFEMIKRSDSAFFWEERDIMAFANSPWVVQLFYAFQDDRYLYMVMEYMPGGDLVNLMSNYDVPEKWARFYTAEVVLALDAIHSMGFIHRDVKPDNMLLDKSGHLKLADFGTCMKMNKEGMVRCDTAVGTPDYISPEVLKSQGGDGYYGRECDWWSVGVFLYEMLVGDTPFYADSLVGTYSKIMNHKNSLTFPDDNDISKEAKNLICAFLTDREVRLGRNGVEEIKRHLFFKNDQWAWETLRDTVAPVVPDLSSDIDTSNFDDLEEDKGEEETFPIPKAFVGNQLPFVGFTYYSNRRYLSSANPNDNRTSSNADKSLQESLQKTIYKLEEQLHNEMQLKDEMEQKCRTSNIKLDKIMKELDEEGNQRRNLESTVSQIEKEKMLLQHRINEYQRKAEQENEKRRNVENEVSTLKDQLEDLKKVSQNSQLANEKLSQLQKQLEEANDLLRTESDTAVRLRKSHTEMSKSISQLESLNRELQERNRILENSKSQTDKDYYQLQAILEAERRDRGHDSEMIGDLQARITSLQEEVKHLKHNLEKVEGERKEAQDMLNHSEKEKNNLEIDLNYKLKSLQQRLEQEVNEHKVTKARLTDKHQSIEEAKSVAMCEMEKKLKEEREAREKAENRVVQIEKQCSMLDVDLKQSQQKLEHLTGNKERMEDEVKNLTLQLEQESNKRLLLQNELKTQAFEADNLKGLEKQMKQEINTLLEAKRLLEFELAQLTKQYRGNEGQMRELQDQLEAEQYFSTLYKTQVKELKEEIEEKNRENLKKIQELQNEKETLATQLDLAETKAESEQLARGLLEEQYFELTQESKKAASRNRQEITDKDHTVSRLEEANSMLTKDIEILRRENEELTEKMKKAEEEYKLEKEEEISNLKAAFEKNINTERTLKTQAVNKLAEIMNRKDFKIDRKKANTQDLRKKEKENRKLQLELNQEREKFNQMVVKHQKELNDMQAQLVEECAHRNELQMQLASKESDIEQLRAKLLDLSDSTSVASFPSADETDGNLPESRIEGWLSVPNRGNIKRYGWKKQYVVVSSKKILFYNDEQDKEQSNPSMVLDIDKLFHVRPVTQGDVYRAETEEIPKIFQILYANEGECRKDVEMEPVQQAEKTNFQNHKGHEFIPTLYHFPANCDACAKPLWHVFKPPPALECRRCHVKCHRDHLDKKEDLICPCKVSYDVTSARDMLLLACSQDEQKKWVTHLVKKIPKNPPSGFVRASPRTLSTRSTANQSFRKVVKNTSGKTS
T2 sequence (Q06187 whole entry): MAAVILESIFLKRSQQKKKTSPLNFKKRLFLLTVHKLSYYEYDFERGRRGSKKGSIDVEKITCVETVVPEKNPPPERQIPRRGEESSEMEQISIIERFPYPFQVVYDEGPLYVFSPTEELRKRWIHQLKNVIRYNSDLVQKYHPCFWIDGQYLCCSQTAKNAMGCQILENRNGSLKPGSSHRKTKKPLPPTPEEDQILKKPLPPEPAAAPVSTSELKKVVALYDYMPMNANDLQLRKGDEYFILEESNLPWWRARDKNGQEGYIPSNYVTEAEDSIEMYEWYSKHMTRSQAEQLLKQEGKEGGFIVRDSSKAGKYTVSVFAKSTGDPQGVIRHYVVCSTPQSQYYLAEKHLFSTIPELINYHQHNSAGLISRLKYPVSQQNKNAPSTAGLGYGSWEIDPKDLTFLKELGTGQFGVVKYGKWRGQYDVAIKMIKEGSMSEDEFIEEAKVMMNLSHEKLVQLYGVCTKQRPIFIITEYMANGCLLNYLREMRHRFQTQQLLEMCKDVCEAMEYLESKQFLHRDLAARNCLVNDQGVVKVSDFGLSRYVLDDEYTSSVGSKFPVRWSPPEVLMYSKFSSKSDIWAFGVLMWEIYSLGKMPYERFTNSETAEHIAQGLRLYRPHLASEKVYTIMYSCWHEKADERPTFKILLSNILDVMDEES
T7 sequence (P49761 whole entry): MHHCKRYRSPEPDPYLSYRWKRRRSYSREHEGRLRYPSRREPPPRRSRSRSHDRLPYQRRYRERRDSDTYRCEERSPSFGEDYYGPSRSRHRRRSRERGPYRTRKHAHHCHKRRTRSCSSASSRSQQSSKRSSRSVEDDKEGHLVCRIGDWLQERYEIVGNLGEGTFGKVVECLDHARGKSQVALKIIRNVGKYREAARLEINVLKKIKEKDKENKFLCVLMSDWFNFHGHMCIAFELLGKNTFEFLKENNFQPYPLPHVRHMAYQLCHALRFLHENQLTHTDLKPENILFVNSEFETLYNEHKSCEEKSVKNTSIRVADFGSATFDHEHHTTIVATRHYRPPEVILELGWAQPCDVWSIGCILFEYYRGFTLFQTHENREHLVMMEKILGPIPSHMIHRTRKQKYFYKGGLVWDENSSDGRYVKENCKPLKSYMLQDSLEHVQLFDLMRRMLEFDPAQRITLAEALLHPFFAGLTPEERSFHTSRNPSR

## Cc1c(-c2cnn(C)c2)nn(-c2ccccc2)c1NC(=O)Nc1cc(C(F)(F)F)nn1-c1ccccc1 [Example 3, 1-(1′,4-dimethyl-1-phenyl-1H,1′H-[3,4′-bipyrazol]-5-yl)-3-(1-phenyl-3-(trifluoromethyl)-1H-pyrazol-5-yl)urea]
[1]
  Avg POC: 103.5 POC
[2]
  Avg POC: 123 POC
[3]
  Avg POC: 107.5 POC
[4]
  Avg POC: 108 POC
[5]
  Avg POC: 109 POC
[6]
  Avg POC: 96.5 POC
[7]
  Avg POC: 104 POC
[8]
  Avg POC: 105 POC
[9]
  Avg POC: 129 POC
[10]
  Avg POC: 120 POC
[11]
  Avg POC: 116 POC
[12]
  Avg POC: 118.5 POC
[13]
  Avg POC: 63 POC
[14]
  Avg POC: 116 POC
[15]
  Avg POC: 116 POC
[16]
  Avg POC: 116.5 POC
[17]
  Avg POC: 118 POC
[18]
  Avg POC: 110 POC
[19]
  Avg POC: 170 POC
[20]
  Avg POC: 121 POC
[21]
  Avg POC: 136.5 POC
[22]
  Avg POC: 117.5 POC
[23]
  Avg POC: 115.5 POC
[24]
  Avg POC: 132.5 POC
[25]
  Avg POC: 99 POC
[26]
  Avg POC: 140 POC
[27]
  Avg POC: 118 POC
[28]
  Avg POC: 93 POC
[29]
  Avg POC: 102 POC
[30]
  Avg POC: 145.5 POC
[31]
  Avg POC: 167 POC
[32]
  Avg POC: 106 POC
[33]
  Avg POC: 115.5 POC
[34]
  Avg POC: 94.5 POC
[35]
  Avg POC: 69.5 POC
[36]
  Avg POC: 108 POC
[37]
  Avg POC: 188 POC
[38]
  Avg POC: 115 POC
[39]
  Avg POC: 110 POC
[40]
  Avg POC: 159.5 POC
[41]
  Avg POC: 102.5 POC
[42]
  Avg POC: 107.5 POC
[43]
  Avg POC: 90.5 POC
